We go through 28 compounds from patent US20100249243A1, “NOVEL BETA-HYDROXYKETONES AND BETA-ALKOXYKETONES WITH ESTROGENIC ACTIVITY” (priority 2007, published 2010).

Structures are written as SMILES.

One assay concerns the target T1, ERα (Homo sapiens, UniProt P03372).
T1 sequence (P03372 1-595): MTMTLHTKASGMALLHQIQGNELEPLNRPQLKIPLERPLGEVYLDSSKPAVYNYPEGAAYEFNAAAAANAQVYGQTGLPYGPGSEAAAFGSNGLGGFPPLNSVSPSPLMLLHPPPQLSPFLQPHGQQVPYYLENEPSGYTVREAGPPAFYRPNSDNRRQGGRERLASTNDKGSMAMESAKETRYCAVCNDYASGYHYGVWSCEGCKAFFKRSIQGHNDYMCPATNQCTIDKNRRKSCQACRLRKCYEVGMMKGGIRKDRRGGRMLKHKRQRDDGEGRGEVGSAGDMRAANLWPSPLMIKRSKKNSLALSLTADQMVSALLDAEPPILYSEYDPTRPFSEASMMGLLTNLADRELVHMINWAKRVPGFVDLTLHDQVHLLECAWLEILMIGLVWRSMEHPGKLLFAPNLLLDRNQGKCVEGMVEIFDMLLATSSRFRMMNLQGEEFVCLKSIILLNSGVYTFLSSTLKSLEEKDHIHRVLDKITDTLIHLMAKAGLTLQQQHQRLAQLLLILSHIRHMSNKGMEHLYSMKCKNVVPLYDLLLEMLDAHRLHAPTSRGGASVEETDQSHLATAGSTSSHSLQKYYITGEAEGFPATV
Put plainly: ERα luciferase reporter (pERE2TATA-LUC) transactivation assay in transfected HEK293 cells. It is filed as cell-based. Further details: expressed in transfected cells; host or cells: HEK293. The note with it: 24 hours; for ERα receptor activation relative to 10 nM E2 corresponding 100: Table 1, sample concentration 10 μM, mean of at least three independent transfections, SEM typically <15%; for ERα in vitro activity (receptor activation relative to 10 nM E2): Table 2, previously published compounds, test compound 10 μM. As to the method: (§1) All other reagents were of reagent grade from Sigma or Fluka. One day before transfection, HEK293 cells were seeded in 48-well plates (70×10^3 cells per well) in phenol-free Dulbecco's modified Eagle medium supplemented with 5% delipidated fetal bovine serum (Sigma) and antibiotics. After a medium change, the cells were transfected for 4 hours with 5 ng ERα or ERβ expression vector, 75 ng reporter plasmid pERE2TATA-LUC and 20 ng control plasmid pCMVβ by the calcium phosphate method. After transfection, the cells received fresh medium containing either vehicle (0.1% v/v) or test compound (10 μM). After 24 hours, the cells were washed, lysed and luciferase and β-galactosidase activities were determined from 20 μl of lysates with the Victor^2TM reader (PerkinElmer Wallac, Turku, Finland). […] The data are means±SEM of at least three independent transfections.

The target of another assay is ERβ (Homo sapiens, UniProt Q92731). Put plainly: ERβ luciferase reporter (pERE2TATA-LUC) transactivation assay in transfected HEK293 cells. Format: cell-based. The arrangement: expressed in transfected cells; host or cells: HEK293. The note with it: for ERβ receptor activation relative to 10 nM E2 corresponding 100: Table 1, sample concentration 10 μM, mean of at least three independent transfections, SEM typically <15%; for ERβ receptor activation relative to 10 nM E2 corresponding 100 / ERβ in vitro activity (receptor activation relative to 10 nM E2): 24 hours; for Emax at 10 µM: HEK293, 24 h, read-out: ERβ receptor activation relative to 10 nM E2 corresponding 100, Table 1, sample concentration 10 μM, mean of at least three independent transfections, SEM typically <15%; for ERβ in vitro activity (receptor activation relative to 10 nM E2): Table 2, previously published compounds, test compound 10 μM. On the procedure:
as §1

ERβ, sequence (Q92731 whole entry): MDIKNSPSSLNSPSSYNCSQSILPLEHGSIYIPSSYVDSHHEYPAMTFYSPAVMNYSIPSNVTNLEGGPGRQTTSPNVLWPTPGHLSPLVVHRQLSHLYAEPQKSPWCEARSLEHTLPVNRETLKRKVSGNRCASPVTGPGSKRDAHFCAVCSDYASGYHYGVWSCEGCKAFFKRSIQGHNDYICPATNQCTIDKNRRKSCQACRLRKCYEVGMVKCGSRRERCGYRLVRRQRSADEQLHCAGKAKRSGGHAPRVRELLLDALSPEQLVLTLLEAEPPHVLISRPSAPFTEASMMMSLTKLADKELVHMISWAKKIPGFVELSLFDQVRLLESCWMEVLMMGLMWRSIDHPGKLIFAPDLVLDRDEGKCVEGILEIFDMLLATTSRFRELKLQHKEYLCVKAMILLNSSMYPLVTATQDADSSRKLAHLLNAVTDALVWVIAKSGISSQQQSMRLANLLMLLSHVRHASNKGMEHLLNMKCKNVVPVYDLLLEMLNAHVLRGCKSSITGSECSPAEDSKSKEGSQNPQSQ

In the case of `COc1ccccc1CC(=O)CC(O)CCc1cccc(F)c1` (single isomer, unassigned) [Compound 22a, 6-(3-Fluorophenyl)-4-hydroxy-1-(2-methoxyphenyl)-2-hexanone], the “ERα receptor activation relative to 10 nM E2 corresponding 100” value on ERα was 8.4%. At ERβ, the “ERβ receptor activation relative to 10 nM E2 corresponding 100” value was found to be 3.4%.
As for `COc1ccccc1CC(=O)CC(O)CCc1cccc(F)c1` (single isomer, unassigned) [Compound 22b, 6-(3-Fluorophenyl)-4-hydroxy-1-(2-methoxyphenyl)-2-hexanone], the “ERα receptor activation relative to 10 nM E2 corresponding 100” value on ERα turned out to be 5.6%. For the same compound, at ERβ, the Emax at 10 µM came out at 2.9%.
For the compound `COc1ccc(CC(O)CC(=O)CCc2ccccc2)cc1` (single isomer, unassigned) [Compound 24a, 5-Hydroxy-6-(4-methoxyphenyl)-1-phenyl-hexan-3-one], the “ERα receptor activation relative to 10 nM E2 corresponding 100” value at ERα came out at 1.6%. Besides, the “ERβ receptor activation relative to 10 nM E2 corresponding 100” value at ERβ is on record as −0.8%.
For `COc1ccc(CC(O)CC(=O)CCc2ccccc2)cc1` (single isomer, unassigned) [Compound 24b, 5-Hydroxy-6-(4-methoxyphenyl)-1-phenyl-hexan-3-one] the same measures were 1.3% and 1.2%.
Regarding `O=C(CCc1ccccc1)CC(O)Cc1ccc2ccccc2c1` (single isomer, unassigned) [Compound 28a, 5-Hydroxy-6-naphthalen-2-yl-1-phenyl-hexan-3-one], the “ERα receptor activation relative to 10 nM E2 corresponding 100” value at ERα was 12.4%. In addition, on ERβ, the “ERβ receptor activation relative to 10 nM E2 corresponding 100” value was determined as 6.4%.
Consider `O=C(CCc1ccccc1)CC(O)Cc1ccc2ccccc2c1` (single isomer, unassigned) [Compound 28b, 5-Hydroxy-6-naphthalen-2-yl-1-phenyl-hexan-3-one], for which the “ERα receptor activation relative to 10 nM E2 corresponding 100” value on ERα was found to be 20.1%. Further, on ERβ, the “ERβ receptor activation relative to 10 nM E2 corresponding 100” value was 20.1%.
As for `O=C(CCCc1ccc(O)cc1)CC(O)c1cccc(O)c1` (single isomer, unassigned) [Compound 35a, 1-Hydroxy-1-(3-hydroxy-phenyl)-6-(4-hydroxy-phenyl)-hexan-3-one], at ERα, the “ERα receptor activation relative to 10 nM E2 corresponding 100” value is recorded as 87.4%. Also, the “ERβ receptor activation relative to 10 nM E2 corresponding 100” value on ERβ stood at 107.8%.
In the case of `O=C(CCCc1ccc(O)cc1)CC(O)c1cccc(O)c1` (single isomer, unassigned) [Compound 35b, 1-Hydroxy-1-(3-hydroxy-phenyl)-6-(4-hydroxy-phenyl)-hexan-3-one], the “ERα receptor activation relative to 10 nM E2 corresponding 100” value on ERα came out at 49.3%. Besides, the “ERβ receptor activation relative to 10 nM E2 corresponding 100” value at ERβ was found to be 43.8%.
Take `O=C(CCCc1ccc(O)cc1)CC(O)Cc1ccc(O)cc1` (single isomer, unassigned) [Compound 42a, 2-Hydroxy-1,7-di-(4-hydroxy-phenyl)-heptan-4-one]: at ERα, the “ERα receptor activation relative to 10 nM E2 corresponding 100” value was determined as 15.4%. The “ERβ receptor activation relative to 10 nM E2 corresponding 100” value at ERβ came out at 1.8%.
Take `O=C(CCCc1ccc(O)cc1)CC(O)Cc1ccc(O)cc1` (single isomer, unassigned) [Compound 42b, 2-Hydroxy-1,7-di-(4-hydroxy-phenyl)-heptan-4-one]: the “ERα receptor activation relative to 10 nM E2 corresponding 100” value at ERα was 2.8%. Moreover, the “ERβ receptor activation relative to 10 nM E2 corresponding 100” value on ERβ is −1.6%.
Regarding `O=C(CC(O)CCc1ccccc1)c1ccccc1` (single isomer, unassigned) [Compound 54a, 3-Hydroxy-1,5-diphenyl-pentan-1-one], the “ERα in vitro activity (receptor activation relative to 10 nM E2)” value at ERα is 3.0%. Moreover, the “ERβ in vitro activity (receptor activation relative to 10 nM E2)” value at ERβ was 1.1%.
Regarding `O=C(CC(O)CCc1ccccc1)c1ccccc1` (single isomer, unassigned) [Compound 54b, 3-Hydroxy-1,5-diphenyl-pentan-1-one], the “ERα in vitro activity (receptor activation relative to 10 nM E2)” value on ERα is recorded as 30.2%. Besides, the “ERβ in vitro activity (receptor activation relative to 10 nM E2)” value at ERβ stood at 7.3%.
The corresponding values for `O=C(CCc1ccccc1)CC(O)c1ccccc1` (single isomer, unassigned) [Compound 56a, 1-Hydroxy-1,5-diphenyl-pentan-3-one] are 78.8% and 20.5%.
In the case of `O=C(CCc1ccccc1)CC(O)c1ccccc1` (single isomer, unassigned) [Compound 56b, 1-Hydroxy-1,5-diphenyl-pentan-3-one], the “ERα in vitro activity (receptor activation relative to 10 nM E2)” value at ERα is reported as 25.3%. In addition, the “ERβ in vitro activity (receptor activation relative to 10 nM E2)” value on ERβ came to 2.8%.
As to `COc1ccc(C(=O)CC(O)Cc2ccc(OCCN(C)C)cc2)cc1` (centres unmarked) [Compound 12ab, 4-[4-(2-Dimethylamino-ethoxy)phenyl]-3-hydroxy-1-(4-methoxy-phenyl)-butan-1-one], at ERα, the “ERα receptor activation relative to 10 nM E2 corresponding 100” value was 0%. Further, on ERβ, the Emax at 10 µM was -8.7%.
For the compound `O=C(CC(O)Cc1ccccc1)c1ccc(O)cc1` (centres unmarked) [Compound 18ab, 3-Hydroxy-1-(4-hydroxyphenyl)-4-phenyl-butan-1-one], the “ERα receptor activation relative to 10 nM E2 corresponding 100” value at ERα is listed as 22.6%. Further, the Emax at 10 µM on ERβ is 58%.
For the compound `O=C(Cc1ccccc1)CC(O)c1cccc(O)c1` (centres unmarked) [Compound 19ab, 4-Hydroxy-4-(3-hydroxyphenyl)-1-phenyl-butan-2-one], on ERα, the “ERα receptor activation relative to 10 nM E2 corresponding 100” value is 12.0%. For the same compound, the Emax at 10 µM on ERβ is 7.7%.
For the compound `O=C(Cc1ccccc1)CC(O)CCc1ccccc1` (centres unmarked) [Compound 20ab, 4-Hydroxy-1,6-diphenylhexan-2-one], the “ERα receptor activation relative to 10 nM E2 corresponding 100” value on ERα turned out to be 4.3%. On ERβ, the Emax at 10 µM was 0.2%.
In the case of `O=C(Cc1cccc(F)c1)CC(O)CCc1ccccc1` (centres unmarked) [Compound 21ab, 1-(3-Fluorophenyl)-4-hydroxy-6-phenyl-hexan-2-one], the “ERα receptor activation relative to 10 nM E2 corresponding 100” value at ERα came out at 25.1%. The Emax at 10 µM on ERβ was determined as 21.1%.
The corresponding values for `CC(O)(CC(=O)CCc1ccc(O)cc1)c1ccccc1` (centres unmarked) [Compound 23ab, 5-Hydroxy-1-(4-hydroxy-phenyl)-5-phenyl-hexan-3-one] are 80.3% and 116%.
The corresponding values for `O=C(CCc1ccccc1)CC(O)Cc1ccc(O)cc1` (centres unmarked) [Compound 25ab, 5-Hydroxy-6-(4-hydroxy-phenyl)-1-phenyl-hexan-3-one] are 51.4% and 6.1%.
`O=C(CCc1ccccc1)CC(O)Cc1ccc(F)cc1` (centres unmarked) [Compound 26ab, 6-(4-Fluorophenyl)-5-hydroxy-1-phenyl-hexan-3-one]: on ERα, the “ERα receptor activation relative to 10 nM E2 corresponding 100” value came to 35.0%. Also, at ERβ, the Emax at 10 µM came to 3.9%.
As for `O=C(CCc1ccccc1)CC(O)Cc1cccc2ccccc12` (centres unmarked) [Compound 27ab, 5-Hydroxy-6-naphthalen-1-yl-1-phenyl-hexan-3-one], the “ERα receptor activation relative to 10 nM E2 corresponding 100” value on ERα amounted to 12.1%. Further, the Emax at 10 µM at ERβ amounted to 1.7%.
With `O=C(CCc1ccccc1O)CC(O)Cc1ccccc1` (centres unmarked) [Compound 30ab, 5-Hydroxy-1-(2-hydroxy-phenyl)-6-phenyl-hexan-3-one], on ERα, the “ERα receptor activation relative to 10 nM E2 corresponding 100” value worked out at 45.2%. Moreover, the Emax at 10 µM on ERβ amounted to 5.1%.
In the case of `O=C(CCc1ccccc1O)CC(O)Cc1ccc(F)cc1` (centres unmarked) [Compound 32ab, 6-(4-Fluoro-phenyl)-5-hydroxy-1-(2-hydroxy-phenyl)-hexan-3-one], the “ERα receptor activation relative to 10 nM E2 corresponding 100” value on ERα was 21.6%. At ERβ, the Emax at 10 µM was determined as 11.1%.
The corresponding values for `O=C(CCc1ccc(O)cc1)CC(O)Cc1ccc(F)cc1` (centres unmarked) [Compound 33ab, 6-(4-Fluoro-phenyl)-5-hydroxy-1-(4-hydroxy-phenyl)-hexan-3-one] are 28.6% and 21.2%.
`CC(O)(CC(=O)CCCc1ccc(O)cc1)c1ccccc1` (centres unmarked) [Compound 37ab, 6-Hydroxy-1-(4-hydroxy-phenyl)-6-phenyl-heptan-4-one]: at ERα, the “ERα receptor activation relative to 10 nM E2 corresponding 100” value amounted to 90.9%. The Emax at 10 µM at ERβ came out at 103%.
For the compound `O=C(CCCc1ccccc1)CC(O)Cc1ccccc1` (centres unmarked) [Compound 38ab, 2-Hydroxy-1,7-diphenyl-heptan-4-one], on ERα, the “ERα receptor activation relative to 10 nM E2 corresponding 100” value came to 24.7%. The Emax at 10 µM at ERβ was 9.1%.
